The text below walks through data of patent publication US20210077570A1, “COMPOSITION COMPRISING A POLYMYXIN AND TEICOPLANIN” (GALENUS G.H. AG, priority 2018, published 2021).

Read-outs that look alike come from different tables or passages of the source. Positions of bridges follow the written chain, without caps; N, C: chain ends. Non-standard residues stand in square brackets, D forms with d. Residues, ends and D or L forms follow the SMILES beside them. *: point of attachment. Heptanoyl(5-Me) = CCC(C)CCCC(=O)*; Dab = NCC[C@H](N)C(=O)O Where only a bound is given, the exact number is not on record here.

The test system of data set [1] is S. maltophilia 1237289. The data set can be described thus: Checkerboard analysis MIC/FIC and MBC/FBC, colistin sulphate plus teicoplanin. The note with it: agent alone, CAMHB; for MIC: S. maltophilia 1237289; for MBC: S. maltophilia, second line of Table 2 (1237289 by order). Format: cell-based, Stenotrophomonas maltophilia. The procedure: Checkerboard analysis to determine minimal inhibitory concentration (MIC)/fractional inhibitory concentration (FIC) and minimal […] (MBC)/fractional […] (FBC) values of colistin sulphate (CS) plus teicoplanin (TP) for 6 Gram-negative strains with a bacterial load 5(1−10)*10^5 CFU/ml in a cation-adjusted Mueller-Hinton broth (CAMHB). • a. Antimicrobial stock solutions were prepared using sterile distilled water • b. CS was added along the ordinate; TP was added along the abscissa to 96 well, flat bottom, polystyrene panels with no treatment. Colistin alone was tested in triplicates. • c. Serial 2-fold dilutions starting with 640 μg/ml CS and 640 μg/ml TP were made; 15 μl volume of the serial dilutions were added for each agent to the appropriate wells; final volume at 30 μl • d. For each agent tested alone an additional 15 μl media was added to the well. 30 μl were added in control wells where none of the agent was tested. The negative control well contains 150 μl media without any additions • e. From an overnight bacterial culture in tryptic soy broth, 100 μl was added to 10 mL of fresh tryptic soy broth. This was then incubated at 37° C. for 1.5 hour at 180 rpm. • f. Bacteria in 120 μl CAMHB were added to each well (end concentration 5(1−10)*10^5 CFU/ml) • g. Plates were incubated at 37° C. in an ambient air incubator for 24 h • h. Turbidity at OD600 is determined with a plate photometer • i. By using a one-time inoculator 3 μl from each well of the 96-well plate were transferred to three blood agar plates. The plates were incubated over night at 37° C. in an ambient air incubator • j. MIC values are defined as lowest concentration which restricts bacterial growth to OD600≤0.1 • k. MBC values were determined by visual reading the lowest concentration which inhibits 99.9% of the growth of bacteria in the wells • l. Determination of the fractional inhibitory concentration (FIC) index and fractional bactericidal concentration (FBC) index and characterization of antimicrobial interactions was assessed • FIC calculation was carried out as: (MIC of drug A, tested in combination)/(MIC of drug A, tested alone)+(MIC of drug B, tested in combination)/(MIC of drug B, tested alone). FBC calculation was carried out just as well • Interactive categories were calculated from checkerboard analysis using MIC results from testing each agent alone and MIC results from the combination wells adjacent to the wells with growth in them
b. Indifference; FIC/FBC>0.5 to <4.0
c. Antagonism; FIC/FBC≥4.0

For data set [2] the following is noted: cited from earlier work.

With `CCC(C)CCCC(=O)N[C@@H](CCN)C(=O)N[C@H](C(=O)N[C@@H](CCN)C(=O)N[C@H]1CCNC(=O)[C@H]([C@@H](C)O)NC(=O)[C@H](CCN)NC(=O)[C@H](CCN)NC(=O)[C@H](CC(C)C)NC(=O)[C@@H](CC(C)C)NC(=O)[C@H](CCN)NC1=O)[C@@H](C)O` (stereo partly drawn) [CS, colistin sulphate] ({Heptanoyl(5-Me)}-[Dab]T[Dab][Dab][Dab][dL]L[Dab][Dab]T; lactam 4-C), the MIC in data set [1] (Stenotrophomonas maltophilia, inoculum 5*10^5 CFU/ml, 24 h, read-out: MIC) amounted to 0.5 µg/mL; in data set [1] (Stenotrophomonas maltophilia, after 48 h growth (values in brackets), read-out: MIC), 8 µg/mL. Further, the minimum bactericidal concentration (MBC) in data set [1] (Stenotrophomonas maltophilia, inoculum 5*10^5 CFU/ml, read-out: MBC) is 8 µg/mL.

teicoplanin [TP]: the “terminal half-life, median (range)” value in data set [2] (Antony et al 1991) is listed as 168 (111-278) h. Besides, the “terminal half-life, mean (±SD)” value in data set [2] (Outman et al 1990) is 157 (±93) h. Also, the MIC was >64 (>64) mg/l in data set [1] (inoculum 5*10^5 CFU/ml, 24 h) and >64 (>64) mg/l in data set [1] (after 48 h growth (values in brackets)). Further, the minimum bactericidal concentration (MBC) in data set [1] (inoculum 5*10^5 CFU/ml) is >64 µg/mL.
